Where a name gives a salt, the structure may show the parent alone.
Assays:
Format in all cases: biochemical
Gelatinase -72 KD = molecular target: T1, Gelatinase -72 KD (Homo sapiens, UniProt P08253); test: Fluorimetric enzyme inhibition assay with peptide substrate (Example A), gelatinase; conditions: true Ki from plot of Ki (app) vs. [S], y-axis intercept; pH 7.5, overnight
T1 sequence (P08253 110-660): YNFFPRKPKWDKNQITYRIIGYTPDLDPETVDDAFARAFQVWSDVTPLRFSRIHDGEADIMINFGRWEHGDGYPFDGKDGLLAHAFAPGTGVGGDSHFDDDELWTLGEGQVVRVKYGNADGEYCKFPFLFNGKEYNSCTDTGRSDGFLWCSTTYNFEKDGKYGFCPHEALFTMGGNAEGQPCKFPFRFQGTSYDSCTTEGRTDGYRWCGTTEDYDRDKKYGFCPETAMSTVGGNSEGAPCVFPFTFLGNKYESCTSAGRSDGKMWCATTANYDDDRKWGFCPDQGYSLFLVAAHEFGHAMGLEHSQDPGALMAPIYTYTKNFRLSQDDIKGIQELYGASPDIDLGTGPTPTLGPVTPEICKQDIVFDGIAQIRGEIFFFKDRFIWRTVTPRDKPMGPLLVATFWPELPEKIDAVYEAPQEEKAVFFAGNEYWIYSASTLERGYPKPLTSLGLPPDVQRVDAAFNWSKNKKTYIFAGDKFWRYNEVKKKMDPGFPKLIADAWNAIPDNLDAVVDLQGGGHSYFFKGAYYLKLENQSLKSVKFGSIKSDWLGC
Method: (§1) All enzyme assays to determine Ki values were performed using the peptide substrate Dnp-Pro-Leu-Gly-Trp-Ala-D-Arg-NH2. (M. Sharon Stock and Rober D. Gray, JBC 264, 4277-81, 1989). The enzymes cleave at the Gly-Leu bond which can be followed fluorimetrically by measuring the increase in Trp fluorescence emission associated with the removal of the quenching dinitrophenol (Dnp) group.
(§2) Essentially, enzyme (e.g. gelatinase, stromelysin, coilagenase) at 0.08-2 nM; a range of inhibitor concentrations (0.1-50×Ki) and substrate (approx. 20 μm) are incubated overnight in 0.1M Tris/HCl buffer, pH 7.5, containing 0.1M NaCl, 10 mM CaCl2 and 0.05%. Brij 35 at either room temperature or 37° C. depending on the enzyme. The reaction is stopped by adjusting the pH to 4 using 0.1M sodium acetate buffer and the fluorescence read at an excitation wavelength of 280nm and emission wavelength of 346nm.
(§3) Ki values can be established using the equation for tight-binding inhibition: [formula] where Vo is the initial rate of reaction in the absence of inhibitor, Vi is the initial rate in the presence of inhibitor, [E] is the total enzyme concentration and [I] the total inhibitor concentration in the reaction mixture.
(§4) For stromelysin and collagenase, Ki (app) was assumed to approximate to the true Ki as [S]<<Km for the substrate hydrolysis. For gelatinase the Ki was determined by performing the analyses at several substrate concentrations. A plot of Ki (app) vs. [S] then gave the true Ki as the value of the y-axis intercept.

Stromelysin-1 = Stromelysin-1 (Homo sapiens, UniProt P08254); test: Fluorimetric enzyme inhibition assay with peptide substrate (Example A), stromelysin-1; conditions: Ki (app) assumed to approximate true Ki; substrate approx. 20 μm, pH 7.5, overnight
Stromelysin-1, sequence (P08254 100-477, species assumed): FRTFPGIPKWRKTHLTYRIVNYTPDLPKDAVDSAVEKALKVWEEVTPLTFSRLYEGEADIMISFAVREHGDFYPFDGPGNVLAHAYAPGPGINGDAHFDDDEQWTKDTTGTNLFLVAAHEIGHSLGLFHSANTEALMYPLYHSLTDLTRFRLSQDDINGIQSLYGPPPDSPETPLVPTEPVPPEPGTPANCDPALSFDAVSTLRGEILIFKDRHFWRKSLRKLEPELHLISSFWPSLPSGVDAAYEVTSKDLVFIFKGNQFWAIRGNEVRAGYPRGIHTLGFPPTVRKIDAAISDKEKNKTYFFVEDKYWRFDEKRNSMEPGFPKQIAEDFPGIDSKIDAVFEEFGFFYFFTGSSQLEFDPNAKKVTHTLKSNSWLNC
Method: as §1, §2, §3, §4

Collagenase = test: Fluorimetric enzyme inhibition assay with peptide substrate (Example A), collagenase; conditions: Ki (app) assumed to approximate true Ki; substrate approx. 20 μm, pH 7.5, overnight
Method: as §1, §2, §3, §4

| Structure (SMILES) | Ki (Gelatinase -72 KD) [nM] | Ki (Stromelysin-1) [nM] | Ki (Collagenase) [nM] |
| --- | --- | --- | --- |
| O=C(O)C[C@@H](CCOc1ccccc1)C(=O)N[C@@H](CC1CCCCC1)C(=O)NCCc1ccccc1 [Example 2] | 22.2 | 1510 | 48800 |
| O=C(C[C@@H](CCOc1ccccc1)C(=O)N[C@@H](CC1CCCCC1)C(=O)NCCc1ccccc1)NO [Example 3, 4-(N-Hydroxyamino)-2-(R)-(3-(2-phenoxyethyl)succinyl)-L-β-cyclohexylalanine-N-(2-phenylethyl)amide] | 0.273 | 29.7 | 478 |
| O=C(C[C@@H](CCCc1ccncc1)C(=O)N[C@@H](CC1CCCCC1)C(=O)NCCc1ccccc1)NO [Example 5, {4-(N-hydroxyamino)-2(R)-(3-(4-pyridinium)propyl)succinyl}-L-β-cyclohexylalanine-N-(2-phenylethyl)amide trifluoroacetate] | 0.035 | 12.6 | 186 |
| C[n+]1ccc(CCC[C@H](CC(=O)NO)C(=O)N[C@@H](CC2CCCCC2)C(=O)NCCc2ccccc2)cc1 [Example 6, {4-(N-hydroxyamino)-2-(R)-3-(N-methyl-4-pyridinium)propylsuccinyl}-L-β-cyclohexylalanine-N-(2-phenylethyl)amide iodide] | 8.42 | 681 | 22000 |
| NS(=O)(=O)c1ccc(CCNC(=O)[C@H](CC2CCCCC2)NC(=O)[C@H](CCCc2ccncc2)CC(=O)NO)cc1 [Example 8, {4-(N-Hydroxyamino)-2-(R)-(3-(4-pyridinium)propyl)succinyl}-L-β-cyclohexylalanine-N-(2-(p-sulphonamidophenyl)ethyl)amide trifluoroacetate] | 0.059 | 11.8 | 215 |
